One experiment has as its system A. baumannii CDC-0045. The experiment can be described thus: microbe, parasite or virus in culture. As to conditions: Acinetobacter baumannii. In kind it is cell-based.
A further experiment deals with A. baumannii ATCC 19606. In words: microbe, parasite or virus in culture. Format: cell-based. The conditions noted are these: Acinetobacter baumannii.
The next experiment has as its system A. baumannii CDC-0036. In words: microbe, parasite or virus in culture. In kind it is cell-based. The conditions noted are these: Acinetobacter baumannii.
A further experiment deals with A. baumannii PBP2 (Acinetobacter baumannii, UniProt D0C8Z9). In words: Bocillin-FL competition binding via gel filtration, A. baumannii PBP2. In outline:
(§1)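 Competitive equilibrium binding with Bocillin-FL reporter: PBP pre-incubated with inhibitor dilutions, Bocillin-FL added, 15 min incubation. Labelled enzyme isolated by size-exclusion spin plates, fluorescence measured; EC50 obtained by fitting bound fraction against inhibitor concentration with a Hill-coefficient model.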

Another experiment has as its system A. baumannii CDC-0033. In words: microbe, parasite or virus in culture. In kind it is cell-based. As to conditions: Acinetobacter baumannii.
The target of another experiment is T1, A. baumannii PBP1a (Acinetobacter baumannii, UniProt A0ABX6CK30).
T1 sequence (A0ABX6CK30 1-851): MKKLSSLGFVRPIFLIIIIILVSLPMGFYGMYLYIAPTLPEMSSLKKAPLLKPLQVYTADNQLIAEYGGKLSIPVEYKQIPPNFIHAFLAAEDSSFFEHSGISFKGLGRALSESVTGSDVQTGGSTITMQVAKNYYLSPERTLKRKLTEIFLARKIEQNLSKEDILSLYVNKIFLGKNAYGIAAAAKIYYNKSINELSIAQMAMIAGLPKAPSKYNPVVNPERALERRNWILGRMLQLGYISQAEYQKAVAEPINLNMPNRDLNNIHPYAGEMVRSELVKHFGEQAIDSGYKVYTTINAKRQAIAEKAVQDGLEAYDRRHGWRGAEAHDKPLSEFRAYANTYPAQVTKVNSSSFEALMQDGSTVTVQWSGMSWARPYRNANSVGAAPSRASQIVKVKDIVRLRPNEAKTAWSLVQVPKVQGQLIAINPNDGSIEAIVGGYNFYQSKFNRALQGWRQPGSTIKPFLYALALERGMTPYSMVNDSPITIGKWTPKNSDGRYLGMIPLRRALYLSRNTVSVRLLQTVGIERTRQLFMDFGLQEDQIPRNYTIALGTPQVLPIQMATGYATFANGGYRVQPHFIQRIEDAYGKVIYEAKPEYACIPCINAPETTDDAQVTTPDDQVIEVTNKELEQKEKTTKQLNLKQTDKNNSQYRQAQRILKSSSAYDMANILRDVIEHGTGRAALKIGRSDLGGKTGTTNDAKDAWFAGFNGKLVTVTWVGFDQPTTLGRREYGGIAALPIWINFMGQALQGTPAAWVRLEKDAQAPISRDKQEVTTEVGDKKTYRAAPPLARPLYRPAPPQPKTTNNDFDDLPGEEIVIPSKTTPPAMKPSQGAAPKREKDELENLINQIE
In words: Bocillin-FL competition binding via gel filtration, A. baumannii PBP1a. The conditions noted are these: competition binding assay using Bocillin-FL via gel filtration; read-out: A. baumannii PBP1a Potency. In outline:
as §1
On the technique in general: In gel filtration, larger molecules generally elute earlier.

The test system of another experiment is P. aeruginosa ATCC 27853. In words: microbe, parasite or virus in culture. The conditions noted are these: Pseudomonas aeruginosa, ATCC27853, read-out: Minimum inhibitory concentration, P. aeruginosa ATCC 27853. In kind it is cell-based.
The subject of the next experiment is P. aeruginosa ATCC 35151. In words: microbe, parasite or virus in culture. In kind it is cell-based. The conditions noted are these: Pseudomonas aeruginosa, ATCC35151, read-out: Minimum inhibitory concentration, P. aeruginosa ATCC 35151.
The subject of experiment [1] is B. humptydooensis ATCC BAA-2767. In words: microbe, parasite or virus in culture. In kind it is cell-based. The conditions noted are these: Burkholderia humptydooensis, ATCCBAA2767, read-out: Minimum inhibitory concentration (MIC), B. humptydooensis ATCC BAA-2767.
The mark [2] stands for this setting: CDC0045, read-out: Minimum inhibitory concentration (MIC), A. baumannii CDC-0045.
Where [3] appears, read: ATCC19606, read-out: Minimum inhibitory concentration (MIC), A. baumannii ATCC 19606.
[4] abbreviates: CDC0036, read-out: Minimum inhibitory concentration (MIC), A. baumannii CDC-0036.
The mark [5] stands for this setting: CDC0033, read-out: Minimum inhibitory concentration (MIC), A. baumannii CDC-0033.
Setting [6] is: CDC0045, read-out: MIC, A. baumannii CDC-0045.
The mark [7] stands for this setting: ATCC19606, read-out: MIC, A. baumannii ATCC 19606.
[8] abbreviates: CDC0036, read-out: MIC, A. baumannii CDC-0036.
[9] abbreviates: CDC0033, read-out: MIC, A. baumannii CDC-0033.

Values after ≈ are worked out from the molar mass of the structure shown. Where two headings read alike, the source gives them in different places.

Chain of A. baumannii PBP2 (D0C8Z9 whole entry): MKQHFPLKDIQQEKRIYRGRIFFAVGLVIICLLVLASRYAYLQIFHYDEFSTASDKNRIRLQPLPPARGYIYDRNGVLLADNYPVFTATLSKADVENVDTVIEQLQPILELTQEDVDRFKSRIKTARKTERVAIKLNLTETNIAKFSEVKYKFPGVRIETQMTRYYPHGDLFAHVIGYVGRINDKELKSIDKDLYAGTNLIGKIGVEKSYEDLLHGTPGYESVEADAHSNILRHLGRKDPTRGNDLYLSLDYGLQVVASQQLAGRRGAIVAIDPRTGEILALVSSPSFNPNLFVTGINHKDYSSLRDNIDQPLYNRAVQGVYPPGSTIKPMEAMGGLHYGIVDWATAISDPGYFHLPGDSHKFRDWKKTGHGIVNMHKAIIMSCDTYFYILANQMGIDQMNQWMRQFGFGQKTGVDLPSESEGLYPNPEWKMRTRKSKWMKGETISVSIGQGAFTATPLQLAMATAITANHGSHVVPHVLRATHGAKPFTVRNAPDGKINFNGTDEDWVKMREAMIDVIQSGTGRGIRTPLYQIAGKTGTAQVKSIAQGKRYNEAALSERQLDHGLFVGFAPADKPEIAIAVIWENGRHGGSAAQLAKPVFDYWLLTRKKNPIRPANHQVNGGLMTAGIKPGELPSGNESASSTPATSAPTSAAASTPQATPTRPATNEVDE

Turning to `O=C(O)c1c(F)ccc2c1OB(O)[C@@H](NC(=O)[C@H](NC(=O)N1CCN(C3CCN(C(=O)c4cc(F)c(O)c(O)c4Cl)CC3)C1=O)c1ccc(P(=O)(O)O)cc1)C2` (single isomer, unassigned) [Example 495], the MIC with A. baumannii CDC-0045 (setting [2]), in the experiment on A. baumannii ATCC 19606 (setting [3]), in the experiment with A. baumannii CDC-0036 (setting [4]), in the experiment with A. baumannii CDC-0033 (setting [5]), in the experiment with P. aeruginosa ATCC 27853 and with P. aeruginosa ATCC 35151 was under 1 µg/mL throughout. The MIC in experiment [1] was under 1 µg/mL. Besides, the EC50 at A. baumannii PBP2 and on A. baumannii PBP1a was under 10 µM throughout.

On to `O=C(O)c1c(F)ccc2c1OB(O)[C@@H](NC(=O)[C@H](NC(=O)N1CCN(C3CCN(C(=O)Nc4ccc(O)c(O)c4Cl)CC3)C1=O)c1ccc(P(=O)(O)O)cc1)C2` (single isomer, unassigned) [Example 497], for which the MIC with A. baumannii CDC-0045 (setting [2]) was under 1 µg/mL; in the experiment on A. baumannii ATCC 19606 (setting [3]), under 1 µg/mL; in the experiment with A. baumannii CDC-0036 (setting [4]), under 1 µg/mL; with A. baumannii CDC-0033 (setting [5]), under 1 µg/mL; in the experiment on P. aeruginosa ATCC 27853, 2 to 4 µg/mL (≈ 2.44 to 4.88 µM); with P. aeruginosa ATCC 35151, under 1 µg/mL. Further, the MIC in [1] is under 1 µg/mL. In addition, the EC50 at A. baumannii PBP2 and at A. baumannii PBP1a was under 10 µM each time.

For `O=C(O)c1c(F)ccc2c1OB(O)[C@@H](NC(=O)[C@H](NC(=O)N1CCN(C3CCN(C(=O)Nc4cc(F)c(O)c(O)c4Cl)CC3)C1=O)c1ccc(P(=O)(O)O)cc1)C2` (single isomer, unassigned) [Example 500], the MIC in the experiment on A. baumannii CDC-0045 (setting [2]), in the experiment on A. baumannii ATCC 19606 (setting [3]), in the experiment with A. baumannii CDC-0036 (setting [4]), with A. baumannii CDC-0033 (setting [5]), in the experiment on P. aeruginosa ATCC 27853 and in the experiment on P. aeruginosa ATCC 35151 was under 1 µg/mL throughout. In [1], the MIC was under 1 µg/mL. Besides, the EC50 on A. baumannii PBP2 and on A. baumannii PBP1a was under 10 µM throughout.

As to `O=C(O)c1cccc2c1OB(O)[C@@H](NC(=O)C(NC(=O)N1CCN(Cc3cc(F)c(O)c(O)c3Cl)C(=O)C1=O)c1ccc(P(=O)(O)O)cc1)C2` (stereo partly drawn) [Example 164, (3R)-3-(2-(4-(2-chloro-5-fluoro-3,4-dihydroxybenzyl)-2,3-dioxopiperazine-1-carboxamido)-2-(4-phosphonophenyl)acetamido)-2-hydroxy-3,4-dihydro-2H-benzo[e][1,2]oxaborinine-8-carboxylic acid], the MIC in the experiment on A. baumannii CDC-0045 (setting [6]), in the experiment on A. baumannii ATCC 19606 (setting [7]), with A. baumannii CDC-0036 (setting [8]), in the experiment on A. baumannii CDC-0033 (setting [9]), in the experiment with P. aeruginosa ATCC 27853 and in the experiment with P. aeruginosa ATCC 35151 was under 1 µg/mL throughout. Besides, the MIC in experiment [1] is under 1 µg/mL. Further, the EC50 at A. baumannii PBP2 and at A. baumannii PBP1a was under 10 µM each time.

Turning to `O=C(O)c1c(F)ccc2c1OB(O)[C@@H](NC(=O)[C@H](NC(=O)N1CCN(Cc3ccc(O)c(O)c3Cl)C(=O)C1=O)c1ccc(P(=O)(O)O)c(F)c1F)C2` [Example 166, (R)-3-((R)-2-(4-(2-chloro-3,4-dihydroxybenzyl)-2,3-dioxopiperazine-1-carboxamido)-2-(2,3-difluoro-4-phosphonophenyl)acetamido)-7-fluoro-2-hydroxy-3,4-dihydro-2H-benzo[e][1,2]oxaborinine-8-carboxylic acid], the MIC in the experiment with A. baumannii CDC-0045 (setting [6]), in the experiment on A. baumannii ATCC 19606 (setting [7]), with A. baumannii CDC-0036 (setting [8]), in the experiment with A. baumannii CDC-0033 (setting [9]), in the experiment with P. aeruginosa ATCC 27853 and in the experiment on P. aeruginosa ATCC 35151 was under 1 µg/mL each time. Further, the MIC in experiment [1] is under 1 µg/mL. The EC50 on A. baumannii PBP2 and on A. baumannii PBP1a was 10 to 50 µM in each case.

As to `O=C(NCCS(=O)(=O)N1CCN(C(=O)N[C@H](C(=O)N[C@H]2Cc3ccc(F)c(C(=O)O)c3OB2O)c2ccc(P(=O)(O)O)cc2)C1=O)c1ccc(O)c(O)c1Cl` [Example 167, (R)-3-((S)-2-(3-((2-(2-chloro-3,4-dihydroxybenzamido)ethyl)sulfonyl)-2-oxoimidazolidine-1-carboxamido)-2-(4-phosphonophenyl)acetamido)-7-fluoro-2-hydroxy-3,4-dihydro-2H-benzo[e][1,2]oxaborinine-8-carboxylic acid], the MIC with A. baumannii CDC-0045 (setting [6]) is over 128 µg/mL; in the experiment on A. baumannii ATCC 19606 (setting [7]), over 128 µg/mL; in the experiment with A. baumannii CDC-0036 (setting [8]), over 128 µg/mL; with A. baumannii CDC-0033 (setting [9]) it was over 128 µg/mL; in the experiment with P. aeruginosa ATCC 27853, over 128 µg/mL; in the experiment with P. aeruginosa ATCC 35151 it was 32 to 64 µg/mL (≈ 38.7 to 77.3 µM). The MIC in [1] was over 128 µg/mL. Moreover, the EC50 was 10 to 50 µM on A. baumannii PBP2 and 50 to 250 µM at A. baumannii PBP1a.

`O=C(O)c1c(F)ccc2c1OB(O)[C@@H](NC(=O)[C@H](NC(=O)N1CCN(C3CCN(C(=O)c4ccc(F)c(O)c4Cl)CC3)C1=O)c1cc(F)c(O)c(O)c1Cl)C2` [Example 438, (R)-3-((R)-2-(3-(1-(2-chloro-4-fluoro-3-hydroxybenzoyl)piperidin-4-yl)-2-oxoimidazolidine-1-carboxamido)-2-(2-chloro-5-fluoro-3,4-dihydroxyphenyl)acetamido)-7-fluoro-2-hydroxy-3,4-dihydro-2H-benzo[e][1,2]oxaborinine-8-carboxylic acid]: the MIC in the experiment on A. baumannii CDC-0045 (setting [6]), in the experiment on A. baumannii ATCC 19606 (setting [7]), in the experiment with A. baumannii CDC-0036 (setting [8]), in the experiment on A. baumannii CDC-0033 (setting [9]), with P. aeruginosa ATCC 27853 and in the experiment on P. aeruginosa ATCC 35151 was under 1 µg/mL throughout. Besides, the MIC in experiment [1] was under 1 µg/mL. The EC50 on A. baumannii PBP2 and at A. baumannii PBP1a was under 10 µM throughout.

On to `O=C(O)c1c(F)ccc2c1OB(O)[C@@H](NC(=O)[C@H](NC(=O)N1CCN(C3CCN(C(=O)Nc4cccc(O)c4)CC3)C1=O)c1cc(F)c(O)c(O)c1Cl)C2` [Example 445, (R)-3-((R)-2-(2-chloro-5-fluoro-3,4-dihydroxyphenyl)-2-(3-(1-((3-hydroxyphenyl)carbamoyl)piperidin-4-yl)-2-oxoimidazolidine-1-carboxamido)acetamido)-7-fluoro-2-hydroxy-3,4-dihydro-2H-benzo[e][1,2]oxaborinine-8-carboxylic acid], for which the MIC is under 1 µg/mL in the experiment on A. baumannii CDC-0045 (setting [6]); under 1 µg/mL in the experiment with A. baumannii ATCC 19606 (setting [7]); under 1 µg/mL in the experiment with A. baumannii CDC-0036 (setting [8]); 2 to 4 µg/mL (≈ 2.59 to 5.18 µM) in the experiment with A. baumannii CDC-0033 (setting [9]); under 1 µg/mL in the experiment on P. aeruginosa ATCC 27853; under 1 µg/mL in the experiment on P. aeruginosa ATCC 35151. The MIC in experiment [1] was under 1 µg/mL. Further, the EC50 at A. baumannii PBP2 and on A. baumannii PBP1a was under 10 µM each time.

On to `O=C(O)c1c(F)ccc2c1OB(O)[C@@H](NC(=O)[C@H](NC(=O)N1CCN(C3CCN(C(=O)Nc4cccc(O)c4Cl)CC3)C1=O)c1cc(F)c(O)c(O)c1Cl)C2` [Example 447, (R)-3-((R)-2-(3-(1-((2-chloro-3-hydroxyphenyl)carbamoyl)piperidin-4-yl)-2-oxoimidazolidine-1-carboxamido)-2-(2-chloro-5-fluoro-3,4-dihydroxyphenyl)acetamido)-7-fluoro-2-hydroxy-3,4-dihydro-2H-benzo[e][1,2]oxaborinine-8-carboxylic acid], for which the MIC in the experiment on A. baumannii CDC-0045 (setting [6]), with A. baumannii ATCC 19606 (setting [7]), with A. baumannii CDC-0036 (setting [8]), in the experiment with A. baumannii CDC-0033 (setting [9]), in the experiment with P. aeruginosa ATCC 27853 and with P. aeruginosa ATCC 35151 was under 1 µg/mL each time. Moreover, in experiment [1], the MIC was under 1 µg/mL. Besides, the EC50 on A. baumannii PBP2 and on A. baumannii PBP1a was under 10 µM each time.
